{"source": "patent US9334264B2", "about": "“NAMPT inhibitors” (AbbVie Inc., priority 2012, dated 2016)", "key": {"NAMPT": {"molecular_target": "NAMPT (Homo sapiens, UniProt P43490)", "sequence (P43490 whole entry)": "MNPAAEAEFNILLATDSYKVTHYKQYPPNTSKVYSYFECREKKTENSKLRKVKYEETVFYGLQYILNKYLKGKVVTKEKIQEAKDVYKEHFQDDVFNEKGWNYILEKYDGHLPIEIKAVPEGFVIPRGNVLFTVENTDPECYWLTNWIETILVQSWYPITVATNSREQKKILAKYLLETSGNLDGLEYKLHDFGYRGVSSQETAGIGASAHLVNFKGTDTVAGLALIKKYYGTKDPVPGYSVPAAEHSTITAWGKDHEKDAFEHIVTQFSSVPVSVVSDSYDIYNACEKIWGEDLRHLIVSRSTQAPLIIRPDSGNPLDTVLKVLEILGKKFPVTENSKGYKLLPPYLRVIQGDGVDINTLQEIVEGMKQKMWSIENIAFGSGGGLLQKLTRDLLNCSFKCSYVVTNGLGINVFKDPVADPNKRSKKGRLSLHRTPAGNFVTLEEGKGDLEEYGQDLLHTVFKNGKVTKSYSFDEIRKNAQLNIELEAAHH", "test": "Time-Resolved Fluorescence Resonance Energy Transfer (TR-FRET) Binding Assay of NAMPT with PRPP", "settings": "200 μM PRPP and 2.5 mM ATP; 2 nM NAMPT, 2 nM probe, equilibrated 16 hours", "how_it_was_run": "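Binding was measured by TR-FRET with 2 nM NAMPT, 2 nM probe and 1 nM Tb-anti-His antibody in the presence of 200 μM PRPP and 2.5 mM ATP, with 2% DMSO. Equilibration lasted 16 h before reading, allowing possible enzymatic modification of compounds.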"}, "[1]": {"molecular_target": "NAMPT (human, recombinant, C-terminally His-tagged) (Homo sapiens, UniProt P43490)", "sequence (P43490 whole entry)": "as above", "test": "Time-Resolved Fluorescence Resonance Energy Transfer (TR-FRET) Binding Assay of NAMPT", "settings": "absence of substrates; 6.8 nM NAMPT, 200 nM probe, equilibrated 3 hours", "how_it_was_run": "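Displacement of 200 nM Oregon Green-labelled nicotinamide-competitive probe from 6.8 nM His-tagged NAMPT, detected with 1 nM Tb-anti-His; HEPES pH 7.5, 2% DMSO, 3 h room temperature. Em520/Em495 ratios normalized and fit four-parameter logistic for IC50.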"}, "activated T cells": {"tested_on": "activated T cells", "settings": "cited from earlier work"}, "[2]": {"tested_on": "collagen-induced arthritis", "settings": "cited from earlier work"}, "[3]": {"tested_on": "experimental autoimmune encephalomyelitis (EAE)", "settings": "a model of T-cell mediated autoimmune disorders; cited from earlier work"}}, "data": [{"smiles": "COC1CCN(C(=O)N(Cc2ccc(F)cc2)c2ncc(C(=O)NCCCn3ccnc3)s2)C1", "note": "(stereo not shown) [Example 68, 2-{(4-fluorobenzyl)[(3-methoxypyrrolidin-1-yl)carbonyl]amino}-N-[3-(1H-imidazol-1-yl)propyl]-1,3-thiazole-5-carboxamide]", "values": [{"measurement": "IC50", "setting": "NAMPT", "value": 4.68, "unit": "nM"}, {"measurement": "IC50", "setting": "[1]", "value": "> 10000", "unit": "nM"}]}, {"smiles": "CC(C)N1CCN(CC(=O)N(Cc2ccc(F)cc2)c2ncc(C(=O)NCCCn3ccnc3)s2)CC1", "note": "[Example 31, 2-[(4-fluorobenzyl){[4-(propan-2-yl)piperazin-1-yl]acetyl}amino]-N-[3-(1H-imidazol-1-yl)propyl]-1,3-thiazole-5-carboxamide]", "values": [{"measurement": "IC50", "setting": "NAMPT", "value": 0.893, "unit": "nM"}, {"measurement": "IC50", "setting": "[1]", "value": 3600, "unit": "nM"}]}, {"smiles": "COCC(=O)N(Cc1ccc(F)cc1)c1ncc(C(=O)NCCCn2ccnc2)s1", "note": "[Example 24, 2-[(4-fluorobenzyl)(methoxyacetyl)amino]-N-[3-(1H-imidazol-1-yl)propyl]-1,3-thiazole-5-carboxamide]", "values": [{"measurement": "IC50", "setting": "NAMPT", "value": 0.682, "unit": "nM"}, {"measurement": "IC50", "setting": "[1]", "value": 4140, "unit": "nM"}]}, {"smiles": "O=C(NCCCn1ccnc1)c1cnc(N(Cc2ccc(F)cc2)C(=O)CC2CCOCC2)s1", "note": "[Example 4, 2-[(4-fluorobenzyl)(tetrahydro-2H-pyran-4-ylacetyl)amino]-N-[3-(1H-imidazol-1-yl)propyl]-1,3-thiazole-5-carboxamide]", "values": [{"measurement": "IC50", "setting": "NAMPT", "value": 0.548, "unit": "nM"}, {"measurement": "IC50", "setting": "[1]", "value": 1220, "unit": "nM"}]}, {"smiles": "CC(C)NC(=O)N(Cc1ccc(F)cc1)c1ncc(C(=O)NCCCn2ccnc2)s1", "note": "[Example 46, 2-[(4-fluorobenzyl)(propan-2-ylcarbamoyl)amino]-N-[3-(1H-imidazol-1-yl)propyl]-1,3-thiazole-5-carboxamide]", "values": [{"measurement": "IC50", "setting": "NAMPT", "value": 2.2, "unit": "nM"}, {"measurement": "IC50", "setting": "[1]", "value": 9520, "unit": "nM"}]}, {"smiles": "COCCC(=O)N(Cc1ccnc(OC)c1)c1ncc(C(=O)NCCCn2ccnc2)s1", "note": "[Example 94, N-[3-(1H-imidazol-1-yl)propyl]-2-{(3-methoxypropanoyl)[(2-methoxypyridin-4-yl)methyl]amino}-1,3-thiazole-5-carboxamide]", "values": [{"measurement": "IC50", "setting": "NAMPT", "value": 1.22, "unit": "nM"}, {"measurement": "IC50", "setting": "[1]", "value": 2870, "unit": "nM"}]}, {"smiles": "O=C(/C=C/c1cccnc1)NCCCCC1CCN(C(=O)c2ccccc2)CC1", "note": "[FK866]", "values": [{"measurement": "apoptosis of activated T cells", "setting": "activated T cells", "value": "induce apoptosis"}, {"measurement": "proliferation of activated T cells", "setting": "activated T cells", "value": "selectively block proliferation"}, {"measurement": "efficacy in animal models of arthritis", "setting": "[2]", "value": "efficacious"}, {"measurement": "manifestations of experimental autoimmune encephalomyelitis", "setting": "[3]", "value": "ameliorated the manifestations"}]}]}
